Laboratory results as given in publication PMC7092418 (Genes and Environment, 2020).

What was measured:
S. typhimurium YG9028 = conditions: Salmonella typhimurium
rat = conditions: in vivo; cited from earlier work

Structure (SMILES) | Specific mutagenicity (S. typhimurium YG9028) [revertants/plate/nmole] | Carcinogenicity (rat)
COS(C)(=O)=O [MMS, Methylmethane sulfonate] | 0.205 | 
[N-]=[N+]=[N-].[Na+] [sodium azide] |  | non-carcinogenic
